Measured values: US4020076A, “Novel phosphoryloxy-thiazoles” (priority 1974, dated 1977)

Columns and labels:
[1] = test system: Ditylenchus Myceliophagus; assay: Acaricide activity, Ditylenchus Myceliophagus; type: in vivo; settings: 24 h, 0.1 g/l, read-out: Percent of mortality after 24 hours
Method: In an apparatus containing 10 ml of an aqueous solution of the test product, 0.5 ml of water containing about 2000 acariens of Ditylenchus Myceliophagus were added thereto and the percent of mortality was determined by a binocular magnifying glass after 24 hours.

Meloidogynes spec = assay: Nematocidal activity against Meloidogynes spec (tomato root galls); type: in vivo; settings: 250 Kg/ha
Method: a. Activity against Meloidogynes spec
A volume of about 3 liters of dirt infested with Meloidogynes spec was placed in a plastic sack. Nematocidal treatments are considered effective to a depth of 30 cm, a volume of 3 liters of dirt corresponding to a surface area of 100 cm^ 2 or 10^-^6 ha (since 100 cm^ 2 × 30 cm = 3000 ml or 3 liters). Each volume of infested dirt received 100 ml of an aqueous suspension containing 0.250 g of the test product (corresponding to 250 Kg/ha) and the controls received only 100 ml of water. The plastic sacks containing the dirt were immediately sealed after the treatment and then agitated to obtain a good distribution of the product. Two weeks after the treatment, the sacks were opened and the dirt was used to plant 3 tomato plants of St. Pierre variety. The plants used were raised in the greenhouse with dirt sterilized with heat to obtain plants free of nematodes. Three plants were used for each test which was run 6 times for each treatment. Two months after planting the tomatoes were removed from the dirt and the efficacy was determined by counting the number of galls observed on the roots. A correlation between the population of Meloidogynes in the pot and the number of galls exists.

CCOc1nc(OP(=S)(OC)OC)c(C#N)s1 [Compound C, 2-ethoxy-4-dimethoxythiophosphoryloxy-5-cyano-thiazole]
mortality at 100 µg/mL [1]: 66.8% | Relative efficacity in % as compound to controls (Meloidogynes spec): 67.4% | Number of galls per foot (Meloidogynes spec; control 44.4): 32.77 | Total number of galls (Meloidogynes spec; control 222): 295
